Measured values: PubChem BioAssay (NCI)
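Tested at 5 concentrations; 48 h exposure; 96-well plates; endpoints linearly interpolated, else capped at highest concentration. TGI: concentration producing complete growth inhibition.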

Tests used:
Test in all cases: inhibition of tumour cell growth, NCI panel, 48 h
[1] = tested on: SW-620 colon
[2] = tested on: CCRF-CEM leukemia
[3] = tested on: LOX IMVI melanoma
[4] = tested on: NCI-H23 lung
[5] = tested on: UACC-62 melanoma
[6] = tested on: SNB-19 CNS
[7] = tested on: MDA-N
[8] = tested on: HCT-116 colon
[9] = tested on: MDA-MB-231 breast
[10] = tested on: CAKI-1 renal

With CC(C)C(Sc1nc(N)nc2nc[nH]c12)C(=O)O (stereo not given) the TGI [1] was > 100 µM, the TGI [2] was > 100 µM and the TGI [3] was > 100 µM. For the same compound, the TGI [4] was > 100 µM, the TGI [5] was > 100 µM and the TGI [6] was > 100 µM. The TGI [7] was > 100 µM, the TGI [8] was > 100 µM and the TGI [9] was > 100 µM. The TGI [10] was > 100 µM.
For O=C(OC1C#CCSCC#C/C=C\1)c1ccc2c(c1)C(=O)c1ccccc1C2=O (stereo not given), the TGI [1] was > 100 µM, the TGI [2] was > 100 µM and the TGI [3] was > 100 µM. The TGI [4] was > 100 µM, the TGI [5] was 34.2 µM and the TGI [6] was 59.7 µM. For the same compound, the TGI [7] was > 100 µM, the TGI [8] was > 100 µM and the TGI [9] was 82.4 µM. For the same compound, the TGI [10] was > 100 µM.
For c1ccc(-c2cc(-c3ccccc3)nc(-c3ccncc3)c2)cc1, the TGI [1] was > 100 µM, the TGI [2] was > 100 µM and the TGI [3] was > 100 µM. For the same compound, the TGI [4] was > 100 µM, the TGI [5] was > 100 µM and the TGI [6] was > 100 µM. The TGI [7] was > 100 µM, the TGI [8] was > 100 µM and the TGI [9] was > 100 µM. The TGI [10] was > 100 µM.
For O=[N+]([O-])c1ccc(CSC2=C(c3ccc(Cl)cc3)S/C(=C3\SC(SCc4ccc([N+](=O)[O-])cc4)=C(c4ccc(Cl)cc4)S3)S2)cc1, the TGI [1] was > 100 µM, the TGI [2] was > 100 µM and the TGI [3] was > 100 µM. The TGI [4] was > 100 µM, the TGI [5] was > 100 µM and the TGI [6] was > 100 µM. For the same compound, the TGI [7] was > 100 µM, the TGI [8] was > 100 µM and the TGI [9] was > 100 µM. The TGI [10] was > 100 µM.
With COc1cc2c(cc1C)NC(=O)/C2=C/c1c(Cl)[nH]c2ccccc12 the TGI [1] was 19.6 µM, the TGI [2] was 17.2 µM and the TGI [3] was 17.9 µM. The TGI [4] was 23.7 µM, the TGI [5] was 14.4 µM and the TGI [6] was 19.2 µM. For the same compound, the TGI [7] was 3.82 µM, the TGI [8] was 17 µM and the TGI [9] was 16.9 µM. It also gave a TGI [10] of 24.7 µM.
With CCC(CCCC[C@H]1CC[C@@H]2CC(=O)C[C@H]12)OC (stereo not given in full) the TGI [1] was > 100 µM, the TGI [2] was > 100 µM and the TGI [3] was > 100 µM. The TGI [4] was > 100 µM, the TGI [5] was > 100 µM and the TGI [6] was > 100 µM. The TGI [7] was > 100 µM, the TGI [8] was > 100 µM and the TGI [9] was > 100 µM. For the same compound, the TGI [10] was > 100 µM.
With CCOC(=O)c1cccc(N=NNc2cccc(C(=O)OCC)c2)c1 the TGI [1] was > 100 µM, the TGI [2] was > 100 µM and the TGI [3] was > 100 µM. The TGI [4] was > 100 µM, the TGI [5] was > 100 µM and the TGI [6] was 46.2 µM. For the same compound, the TGI [7] was > 100 µM, the TGI [8] was > 100 µM and the TGI [9] was 53.3 µM. For the same compound, the TGI [10] was > 100 µM.
With NC1CC(=O)c2c(I)sc(I)c21 (stereo not given) the TGI [1] was 46.1 µM, the TGI [2] was > 34.3 µM and the TGI [3] was 27.2 µM. For the same compound, the TGI [4] was 35 µM, the TGI [5] was 32.6 µM and the TGI [6] was 46.9 µM. The TGI [7] was 44.7 µM, the TGI [8] was > 49.4 µM and the TGI [9] was 38.1 µM. It also gave a TGI [10] of 27.1 µM.
N#CC1=C(N)OC2=C(CCCc3ccc([N+](=O)[O-])cc32)C1c1ccc(Cl)cc1 (stereo not given) was tested, and the TGI [1] was > 100 µM, the TGI [2] was > 100 µM and the TGI [3] was 44.5 µM. The TGI [4] was 47.7 µM, the TGI [5] was 20.2 µM and the TGI [6] was > 100 µM. For the same compound, the TGI [7] was 39.6 µM, the TGI [8] was 12.5 µM and the TGI [9] was > 100 µM. For the same compound, the TGI [10] was > 100 µM.
In the case of CCc1nnc2sc(-c3ccc(-c4ccccc4[N+](=O)[O-])o3)nn12, the TGI [1] is reported as > 100 µM, the TGI [2] is reported as > 100 µM and the TGI [3] is reported as > 100 µM. For the same compound, the TGI [4] was > 100 µM, the TGI [5] was > 100 µM and the TGI [6] was > 100 µM. For the same compound, the TGI [7] was 46.1 µM, the TGI [8] was > 100 µM and the TGI [9] was > 100 µM. For the same compound, the TGI [10] was > 100 µM.
CC(=O)N(C(=O)CC(=O)N1N=C(C)C(N=Nc2cccc([N+](=O)[O-])c2)C1=O)c1ccc(Cl)cc1 (stereo not given) was tested, and the TGI [1] was > 10 µM, the TGI [2] was > 10 µM and the TGI [3] was > 10 µM. The TGI [4] was > 10 µM, the TGI [5] was > 10 µM and the TGI [6] was > 10 µM. For the same compound, the TGI [7] was > 10 µM, the TGI [8] was > 10 µM and the TGI [9] was > 10 µM. For the same compound, the TGI [10] was > 10 µM.
For O=C1N[C@@H]([C@H]2CC[C@H](Cl)CN2)C(=O)N[C@H]1[C@H]1CC[C@H](Cl)CN1, the TGI [1] was 29.4 µM, the TGI [2] was 33.4 µM and the TGI [3] was 2.6 µM. It also gave a TGI [4] of 8.76 µM, a TGI [5] of 3.53 µM and a TGI [6] of 104 µM. For the same compound, the TGI [7] was 4.98 µM, the TGI [8] was 32.7 µM and the TGI [9] was 6.43 µM. The TGI [10] was 3.06 µM.
In the case of COc1cccc(C2c3cc4c(cc3OC(NNS(=O)(=O)c3ccc(C)cc3)C2C)OCO4)c1O (stereo not given), the TGI [1] is reported as > 100 µM, the TGI [2] is reported as 43.6 µM and the TGI [3] is reported as > 100 µM. The TGI [4] was > 100 µM, the TGI [5] was 79.7 µM and the TGI [6] was > 100 µM. For the same compound, the TGI [7] was 80.1 µM, the TGI [8] was 30.1 µM and the TGI [9] was 49.2 µM. The TGI [10] was > 100 µM.
c1cc(CSP234N5CCN2CCN3CCN4CC5)cc(CSP234N5CCN2CCN3CCN4CC5)c1 was tested, and the TGI [1] was > 100 µM, the TGI [2] was 62.3 µM and the TGI [3] was 35.1 µM. The TGI [4] was > 100 µM, the TGI [5] was 36.6 µM and the TGI [6] was > 100 µM. For the same compound, the TGI [7] was 79.9 µM, the TGI [8] was > 100 µM and the TGI [9] was 38.2 µM. For the same compound, the TGI [10] was > 100 µM.
In the case of C1CCC(CC2CCC(NC3=NCCO3)CC2)CC1 (stereo not given), the TGI [1] is reported as 41.7 µM, the TGI [2] is reported as 61.9 µM and the TGI [3] is reported as 30.9 µM. The TGI [4] was 36.5 µM, the TGI [5] was 31.1 µM and the TGI [6] was 34.3 µM. For the same compound, the TGI [7] was 35.9 µM, the TGI [8] was 30.6 µM and the TGI [9] was 37.5 µM. The TGI [10] was 50.7 µM.
